Consider 4 compounds from the NIST ThermoML archive (doi:10.1016/j.fluid.2004.12.007).

Numbers after ± are expanded uncertainties.

For this series the following is noted: Liquid; for mass density: 298.15 K, 101.33 kPa.

Usually mass density stands for mass per unit of volume. The vapor or sublimation pressure is the pressure of vapour in equilibrium with the condensed phase.

For the compound `COCOC` [dimethoxymethane], the mass density amounted to 847.51 ± 1.1 kg/m3. Besides, the “vapor or sublimation pressure” value (313.75 K) is on record as 95.96 ± 0.75 kPa. Besides, the “vapor or sublimation pressure” value (315.25 K) is 101.3 ± 0.8 kPa.
Regarding `COC(C)(C)C` [2-methoxy-2-methylpropane], the mass density is 735.4 ± 0.97 kg/m3. The “vapor or sublimation pressure” value (326.55 K) is reported as 95.96 ± 0.64 kPa. The “vapor or sublimation pressure” value (328.35 K) is 101.3 ± 0.6 kPa.
`CC(C)CC(C)(C)C` [2,2,4-trimethylpentane]: the mass density is recorded as 687.72 ± 0.9 kg/m3. Further, for the setting “370.45 K”, the “vapor or sublimation pressure” value stood at 95.96 ± 0.59 kPa. Moreover, the “vapor or sublimation pressure” value (372.45 K) was 101.3 ± 0.6 kPa.
Take `CC(C)OC(C)C` [diisopropyl ether]: the mass density was 718.14 ± 0.95 kg/m3. For the same compound, the “vapor or sublimation pressure” value (339.95 K) worked out at 95.96 ± 0.8 kPa. For the same compound, the “vapor or sublimation pressure” value (341.35 K) came out at 101.3 ± 0.8 kPa.
